Results taken from ChEMBL document CHEMBL1143998, “Binding to human serum albumin of zidovudine (AZT) and novel AZT derivatives. Experimental and theoretical analyses” (Bioorg Med Chem, 2008).

Experiments:
Assay type in all cases: ADME
Details in all cases: isolated protein
Albumin [1] = target: T1, Albumin (Homo sapiens, UniProt P02768); assay: Binding affinity to defatted human serum albumin relative to zidovudine
Albumin [2] = target: T1, Albumin; assay: Binding affinity to defatted human serum albumin in presence of salicylic acid
Albumin [3] = target: T1, Albumin; assay: Binding affinity to defatted human serum albumin
Albumin [4] = target: T1, Albumin; assay: Binding affinity to fatty acid complexed human serum albumin

T1 sequence (P02768 whole entry): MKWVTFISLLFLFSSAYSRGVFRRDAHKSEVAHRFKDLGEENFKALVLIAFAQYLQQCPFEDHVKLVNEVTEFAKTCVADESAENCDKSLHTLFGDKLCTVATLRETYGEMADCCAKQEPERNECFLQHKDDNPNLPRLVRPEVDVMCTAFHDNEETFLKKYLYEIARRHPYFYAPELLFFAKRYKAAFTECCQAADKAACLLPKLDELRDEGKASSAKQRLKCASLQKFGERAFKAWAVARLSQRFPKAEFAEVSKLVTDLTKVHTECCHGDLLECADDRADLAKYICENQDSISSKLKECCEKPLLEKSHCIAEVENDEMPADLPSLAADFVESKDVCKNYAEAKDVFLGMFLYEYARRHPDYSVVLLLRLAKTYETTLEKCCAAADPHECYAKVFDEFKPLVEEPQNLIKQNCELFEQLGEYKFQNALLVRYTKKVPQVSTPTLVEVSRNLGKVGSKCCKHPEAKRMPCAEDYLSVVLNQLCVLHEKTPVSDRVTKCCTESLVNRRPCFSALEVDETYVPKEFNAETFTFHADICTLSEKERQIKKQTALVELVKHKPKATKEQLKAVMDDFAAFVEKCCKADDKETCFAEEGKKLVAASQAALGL

| Compound | Activity (Albumin [1]) | Activity (Albumin [2]) | Ka (Albumin [2]) | Activity (Albumin [3]) | Ka (Albumin [3]) | Activity (Albumin [4]) | Ka (Albumin [4]) |
| --- | --- | --- | --- | --- | --- | --- | --- |
| Cc1cn([C@H]2C[C@H](N=[N+]=[N-])[C@@H](COC(=O)C(=O)N3CCC[C@H]3C(=O)O)O2)c(=O)[nH]c1=O | 0.9 | 9.4% | 811.7 L/mol | 11.9% | 944.6 L/mol | 16.1% | 1341.9 L/mol |
| Cc1cn([C@H]2C[C@H](N=[N+]=[N-])[C@@H](COC(=O)c3ccncc3)O2)c(=O)[nH]c1=O | 1.64 | – | – | 19.8% | 1709.8 L/mol | 38.8% | 3277.3 L/mol |
| Cc1cn([C@H]2C[C@H](N=[N+]=[N-])[C@@H](COC(=O)C(=O)N[C@@H](Cc3ccc(O)cc3)C(=O)O)O2)c(=O)[nH]c1=O | 1.17 | 9.4% | 811.7 L/mol | 14.9% | 1224.4 L/mol | 10.4% | 890.9 L/mol |
| Cc1cn([C@H]2C[C@H](N=[N+]=[N-])[C@@H](COC(=O)C(=O)N[C@@H](Cc3c[nH]c4ccccc34)C(=O)O)O2)c(=O)[nH]c1=O | 1.73 | 17.6% | 1519.8 L/mol | 20.5% | 1803.2 L/mol | 23.7% | 2172.1 L/mol |
| Cc1cn([C@H]2C[C@H](N=[N+]=[N-])[C@@H](COC(=O)C(=O)N[C@@H](Cc3ccccc3)C(=O)O)O2)c(=O)[nH]c1=O | 1.12 | 8.3% | 716.7 L/mol | 13.6% | 1174.4 L/mol | 5.5% | 436.6 L/mol |

The next lines start with the values.

| Activity (Albumin [1]) | Activity (Albumin [2]) | Ka (Albumin [2]) | Activity (Albumin [3]) | Ka (Albumin [3]) | Activity (Albumin [4]) | Ka (Albumin [4]) | Compound |
| --- | --- | --- | --- | --- | --- | --- | --- |
| 5.93 | 7% | 604.5 L/mol | 47% | 6201.3 L/mol | 10.4% | 811.7 L/mol | Cc1cn([C@H]2C[C@H](N=[N+]=[N-])[C@@H](COC(=O)C(=O)O)O2)c(=O)[nH]c1=O |
| 1.47 | 15.2% | 1312.6 L/mol | 17.4% | 1535 L/mol | 11.9% | 944.6 L/mol | Cc1cn([C@H]2C[C@H](N=[N+]=[N-])[C@@H](COC(=O)C(=O)N[C@H](C(=O)O)C(C)C)O2)c(=O)[nH]c1=O |
| 3.6 | 4.6% | 397.2 L/mol | 35.2% | 3765.4 L/mol | 7.6% | 575.2 L/mol | CC[C@H](C)[C@H](NC(=O)C(=O)OC[C@H]1O[C@@H](n2cc(C)c(=O)[nH]c2=O)C[C@@H]1N=[N+]=[N-])C(=O)O |
| 2.35 | 5.2% | 449 L/mol | 26.5% | 2457 L/mol | 8.9% | 683.2 L/mol | Cc1cn([C@H]2C[C@H](N=[N+]=[N-])[C@@H](COC(=O)C(=O)N[C@@H](CC(C)C)C(=O)O)O2)c(=O)[nH]c1=O |
